Measured values taken from ChEMBL document CHEMBL2434945, “Anti-inflammatory constituents from the fruits of Vitex rotundifolia” (Bioorg Med Chem Lett, 2013).

Tests used:
RAW264.7 = assay: Antiinflammatory activity against mouse RAW264.7 cells assessed as inhibition of LPS-induced NO production after 24 hrs by Griess method; assay type: functional, cell-based; conditions: RAW264.7, 24 h
[1] = Cytotoxicity against mouse RAW264.7 cells assessed as cell viability by colorimetric method relative to control; assay type: cell-based; parameters: concentration or dose not given beside the values; conditions: read-out: Activity

Compound	IC50 (RAW264.7)	viability [1]
CC(C)(O)c1ccc2c(c1)CC[C@H]1C(C)(C)[C@@H](O)CC[C@]21C	> 50 µM	> 90%
C[C@@H]1CC[C@H]2C(C)(C)CCC[C@]2(C)[C@@]12CC/C(=C\C=O)O2	41.8 µM	> 90%
CC(=O)O[C@H]1CC[C@@]2(C)[C@@H](CC[C@@H](C)[C@]23CCC(=O)O3)C1(C)C [VITEDOIN B]	> 50 µM	> 90%
N=C(N)NN [PIMAGEDINE]	–	> 90%
CC(=O)O[C@@H]1C[C@@H](C)[C@](O)(CCC2=CC(=O)OC2O)[C@@]2(C)CCCC(C)(C)[C@H]12 (some centres undefined) [VITEAGNUSIN I]	11.3 µM	> 90%
C=CC(C)(O)CC[C@@]1(C)C2=C([C@H](OC(C)=O)[C@H](OC(C)=O)[C@H]1C)C(C)(C)CCC2 (some centres undefined) [VITETRIFOLIN D]	24.5 µM	> 90%
CC(=O)O[C@@H]1C[C@@H](C)[C@](O)(CCC2=CC(=O)OC2)[C@@]2(C)CCCC(C)(C)[C@H]12 [VITEXILACTONE]	42.5 µM	> 90%
COc1ccc(-c2oc3cc(OC)c(OC)c(O)c3c(=O)c2OC)cc1O [CASTICIN]	21.4 µM	> 90%
COc1cc(C[C@H]2CO[C@H](c3ccc(O)c(OC)c3)[C@H]2CO)ccc1O [LARICIRESINOL]	> 50 µM	> 90%
COc1cc([C@H]2Oc3c(OC)cc(CCCO)cc3[C@@H]2CO)ccc1O [DIHYDRODEHYDRODICONIFERY ALCOHOL]	38.7 µM	> 90%
